For 87 molecules, logD results are on record in the SangsterLogP compilation.

The term logD denotes the decadic logarithm of the distribution of all forms, ionised or not, between an organic phase and buffer at a given pH.

For one data set the following is noted: pH 2.0.
`O=C(/C=C/c1cccs1)Nc1ccc(I)cc1` displayed a logD of 4.67.

Molecule `CC[C@@H](OC(=O)CNC(=O)c1ccc(N2C(=O)c3ccccc3C2=O)cc1)C(=O)c1ccccc1` showed a pH-dependent lipophilicity (logD) of 4.15. Turning to `O=C(/C=C/c1ccco1)Nc1ccccc1NC(=O)/C=C/c1ccco1`, the logD is 3.79. `Cc1cc(C)n2nc(S[C@@H](C)C(=O)NCC(=O)Nc3ccc(F)c(F)c3F)nc2n1` gave a log distribution coefficient (logD) of 2.18.

Still in this data set, the particulars now being: pH 5.0.
`Cc1c(Nc2nc3ccccc3nc2Nc2cccc(Cl)c2)c(=O)n(-c2ccccc2)n1C` returned a logD of 5.96. On the same count and under the same terms, the figure for `CCN(CC)S(=O)(=O)c1ccc(/C=C/C(=O)NC2CCCCC2)cc1` is 4.34; for `Cc1onc(-c2c(F)cccc2Cl)c1C(=O)OCC(=O)N1[C@H](C)CCC[C@H]1C` it is 4.38.

`COc1ccc(Oc2c(C(F)(F)F)oc3cc(OC(=O)N4CCOCC4)ccc3c2=O)cc1` registered a pH-dependent lipophilicity (logD) of 4.63. Still for that read-out and setting: the figure for `CSc1ccc(S(=O)(=O)N(CC(=O)NC[C@@H]2CCCO2)c2ccc(C)cc2)cc1` is 4.3; for `COc1cc([C@H]2NC(=O)NC(C)=C2C(=O)OC(C)C)ccc1OC(F)F` it is 3.75. `CC1(C)CC(=O)C2=C(C1)N(c1c(F)cccc1F)C(N)=C(C#N)[C@@H]2c1cccc(Cl)c1` registered a logD of 5.04. Same read-out and setting: the figure for `O=C1[C@H]2OC[C@H](O2)[C@H]2[C@@H]1[C@@H]1C=C[C@H]2C1` is 1.48; for `COc1cccc(C(=O)N2CCC[C@H](c3ccccc3)C2)c1` it is 4.04; for `O=C(NCc1ccccc1)/C(=C/c1ccc(Cl)cc1)NC(=O)c1ccccc1` it is 4.41.

For `COc1cccc(NC(=O)[C@H](OC(=O)C2=COCCO2)c2ccccc2)c1`, the logD worked out at 3.81.

As to `C#CCOc1ccc(C2C3=C(CC(C)(C)CC3=O)OC3=C2C(=O)CC(C)(C)C3)cc1OCC`, the logD was determined as 4.93. On the same count and under the same terms, the figure for `Cc1ccc(C)c(NC(=O)[C@H]2CC3c4ccccc4C2c2ccccc23)c1` is 5.26; for `COc1cc(C#N)ccc1OC(=O)/C=C/c1cccc(F)c1` it is 4.46; for `Cc1ccc(N2C(=O)N(c3cccc(Cl)c3)[C@@H]3CS(=O)(=O)C[C@@H]32)cc1` it is 3.56. Still for that read-out and setting: the figure for `C[C@@H]1CCC[C@H](C)N1C(=O)COC(=O)c1ccc2c(c1)S(=O)(=O)c1ccccc1C2=O` is 4.39. For the molecule `C[C@@H](NC(=O)C1CCN(C(=O)c2ccc(F)cc2)CC1)c1ccccc1`, the logD is 3.48. Same read-out and setting: the figure for `CC1(C)CC(=O)C2=C(C1)OC(N)=C(C#N)[C@H]2c1ccc(C(F)(F)F)cc1` is 4.55; for `CCN(CC)S(=O)(=O)c1ccc2nnn(OCC(=O)NC(c3ccccc3)c3ccccc3)c2c1` it is 4.49; for `Cc1cc(C(=O)CN2C(=O)[C@@H]3CC=CC[C@H]3C2=O)c(C)n1Cc1ccc2c(c1)OCO2` it is 4.38. The same measure, in the same setting: the figure for `CCOC(=O)N1CCN(C(=O)c2ccc(N3C(=O)[C@H]4CCCC[C@@H]4C3=O)cc2)CC1` is 3.74; for `CCCS(=O)(=O)c1c(S(=O)(=O)CCC)c2c3ccccc3ccn2c1C(=O)c1ccccc1` it is 4.48. On the same count and under the same terms, the figure for `O=C1/C(=C/c2c(Sc3ccccc3)nc3ccccn3c2=O)SC(=S)N1C[C@H]1CCCO1` is 5.87; for `Cc1ccc([C@@H](O)P(=O)(OCC(C)C)OCC(C)C)cc1` it is 4.44; for `O=C(Nc1ccc(C(F)(F)F)cc1)[C@H]1CCc2ccccc2O1` it is 4.5.

`CCCC(=O)NC[C@@H](C)NC(=O)CCC` displayed a logD of 1.43.

`COC(=O)[C@H]1OC(c2ccccc2)O[C@H]1C(=O)OC` (some centres not stated) returned a logD of 2.49. Same read-out and setting: the figure for `CS(=O)(=O)N(CC(=O)Nc1ccccc1C(=O)NCc1ccco1)c1ccc(Cl)cc1` is 4.32; for `OCC#CC(O)(c1ccc(F)cc1)c1ccc(F)cc1` it is 3.61.

As to `Cc1ccc(C(=O)COc2cccc(N3C(=O)[C@@H]4[C@H]5CC[C@H](C5)[C@@H]4C3=O)c2)cc1C`, the logD was 4.71. The same measure, in the same setting: the figure for `COc1ccccc1[C@@H]1CC(=O)Nc2cc(C)c(C)cc21` is 4.17. Same read-out and setting: the figure for `CCC(=O)N1c2ccccc2NC2=C(C(=O)CC(C)(C)C2)[C@H]1c1ccc(-c2ccc([N+](=O)[O-])cc2Cl)o1` is 5.55; for `CCOC(=O)C1=C(C)NC(=S)N[C@@H]1c1ccc(OCc2ccc(Cl)cc2)c(OCC)c1` it is 5.31; for `O=C1[C@H]2[C@@H](C(=O)N1c1ccccc1)C1(O[C@H]2c2ccccc2)C(=O)c2ccccc2C1=O` it is 4. Still for that read-out and setting: the figure for `N#CC1=C(N)C(C#N)(C#N)[C@@H](c2ccccc2Cl)[C@@H]2CSCC=C12` is 4.5; for `O=C(Nc1cccc(Cl)c1)c1cc2n(n1)[C@H](C(F)(F)F)C[C@@H](c1ccccc1)N2` it is 5.92; for `O=C(N[C@H](Sc1ncccn1)C(=O)c1ccccc1)c1ccccc1` it is 3.62. In turn, `CC(=O)Nc1ccc(/N=C/c2c(O)oc3ccccc3c2=O)cc1` gave a logD of 3.64.

In turn, `COC(=O)N[C@H](O)C(=O)c1ccccc1` displayed a pH-dependent lipophilicity (logD) of 1.41. The same measure, in the same setting: the figure for `Cc1cccc(NC(=O)Cc2ccc(Br)cc2)c1C` is 4.05. Still for that read-out and setting: the figure for `CCN(C(=O)COC(=O)/C(=C/c1ccc(Cl)cc1)c1ccc(F)cc1)[C@@H]1CCS(=O)(=O)C1` is 4.95.

Molecule `COc1ccc([C@H]2C(C#N)=C(N)N(c3ccc(Cl)cc3)C3=C2C(=O)CC(C)(C)C3)cc1OC` came in with a logD of 4.34. As for `CC(C)[C@H]1O[C@H]2CCCC[C@H]2C2=CCCC[C@H]21`, the logD was found to be 5.87.

On to `CCOC(=O)C1=C(C)NC(=O)C[C@@H]1c1cc(OC)c(OC)cc1Br`, for which the logD was determined as 3.93.

Molecule `CCOCCOC(=O)c1ccc(NC(=O)COc2ccc(C)cc2Br)cc1` displayed a logD of 5.36.

The data set is the same for the next values; noted with them: pH 6.0.
For `CC1=C(C(=O)N2CCCCC2)C(c2cccs2)C2=C(O)CCCC2=N1` (configuration not stated), the logD was 3.37.

The same data set, now with this note: pH 6.5.
Take `CC(C)(C)C1(C)O[C@H](C(N)=O)[C@H](C(N)=O)O1` (some centres not stated): the logD is 1.6. Still for that read-out and setting: the figure for `NC(=O)C(C(=O)/C=C/c1ccc(Cl)cc1)=C1SCS1` is 3.64; for `O=C(CCCCCN1C(=O)/C(=C\c2cccs2)SC1=S)N1CCOCC1` it is 4.92; for `Cc1ccc(NC(=O)COC(=O)/C(=C/c2cccs2)c2cccs2)c(C)c1` it is 3.83. Regarding `C[C@H]1CCCN(C(=O)COC(=O)COc2cc(Cl)c(Cl)cc2Cl)C1`, the logD turned out to be 4.97. Same read-out and setting: the figure for `COC[C@H](C)NC(=O)CCl` is 0.61; for `CC[C@@H]1CCCCN1C(=O)COc1cccc2c1CCN(Cc1ccc(Cl)cc1)C2=O` it is 5.23. Turning to `CC/C(=N\N=C1/S[C@@H](C)C(=O)N1Cc1ccco1)c1ccccc1`, the pH-dependent lipophilicity (logD) was 5.07. The logD values of the last two molecules are within 0.2 log units of each other.

Regarding `O=C(CCCNC1=NS(=O)(=O)c2ccccc21)OCc1cc([N+](=O)[O-])cc2c1OCOC2`, the pH-dependent lipophilicity (logD) stood at 3.52. For the molecule `O=C(CN1N=N[C@@H]2C(=O)N(c3ccc(Cl)cc3Cl)C(=O)[C@@H]21)Nc1ccccc1`, the logD amounted to 4.3. On the same count and under the same terms, the figure for `O=C([C@H]1CCCO1)N1CCN(C(=S)Nc2ccc(Oc3ccccc3)cc2)CC1` is 4.18.

The data set is the same for the next values; noted with them: pH 7.0.
As for `Cc1ccc(N[C@H]2O[C@@H](CO)[C@H](O)[C@@H](O)[C@H]2O)cc1Br`, the logD stood at 2.28.

The same data set, now with this note: pH 7.3.
`O=C(Nc1ccccc1)[C@H]1CC(=O)N(Cc2ccccc2)/C(=N/c2ccc(F)cc2)S1` had a logD of 6. On to `CC1(C)[C@@]2(C)CC[C@]1(C(=O)Nc1ccccc1C(F)(F)F)c1nc3ccccc3nc12`, for which the logD is 6.01. On the same count and under the same terms, the figure for `CCOC(=O)C1=C(N)n2c(s/c(=C\c3ccc(C(=O)OC)cc3)c2=O)=C(C(=O)OC)C1c1ccc(C(=O)OC)cc1` (configuration not stated) is 6.95; for `Cc1cc(C)n(-c2ccc(-n3cccc3/C=C(\C#N)S(C)(=O)=O)cc2)n1` it is 4.25.

`CSc1ncc2c(n1)-c1c(SC)sc(C(=O)Nc3ccc(Cl)cc3)c1CC2` yielded a logD of 5.87. Same read-out and setting: the figure for `O=C(c1cccc(S(=O)(=O)N2CCOCC2)c1)N1CCN(c2cccc(Cl)c2)CC1` is 4.34.

Staying with this data set, now noted: pH 8.0.
Turning to `COC(=O)CSc1nc(NCC(C)C)nc(N2CCOCC2)n1`, the logD was 3.75.

Staying with this data set, now noted: pH 10.0.
In turn, `CCSCCOC(=O)C1=C(C)NC2=C(C(=O)C[C@@H](c3cccs3)C2)[C@@H]1c1ccc(C(=O)OC)cc1` had a logD of 5.24. Regarding `O=C1[C@@H]2C3c4ccccc4C(c4ccccc43)[C@@H]2C(=O)N1c1nccs1`, the logD was found to be 3.83.

On to `CCOC(=O)c1c(CC(C)C)csc1/N=C/c1c(C)nn(-c2ccccc2)c1O`, for which the log distribution coefficient (logD) amounted to 5.16. For `Clc1cccc(Cl)c1Cn1ccc(Nc2nnc(Cc3ccc(-n4cnnn4)cc3)s2)n1`, the logD worked out at 4.99. Molecule `CC[C@@H](SC1=Nc2ccccc2C2=N[C@@H](Cc3ccccc3)C(=O)N12)C(=O)N1CCOCC1` registered a logD of 3.95. Same read-out and setting: the figure for `NC(=O)c1cc(N2C(=O)[C@H]3CC=CC[C@@H]3C2=O)ccc1N1CCCCC1` is 3.68.

Still in this data set, the particulars now being: pH 10.5.
`CCOc1ccc(C2=NN=C3OC(N)=C(C#N)[C@@H](c4ccco4)[C@@H]32)c(OCC)c1` registered a logD of 4.48. Same read-out and setting: the figure for `COc1ccc(N2C(=O)C[C@@H](Sc3nc(C)cc(C)n3)C2=O)cc1OC` is 2.95. Still for that read-out and setting: the figure for `CC(=O)C1=C(C)NC(SCC(=O)Nc2ccccc2)=C(C#N)[C@H]1c1ccccc1Cl` is 4.97; for `COc1cc([C@@H]2C(C#N)=C(N)Oc3[nH]nc(C)c32)ccc1OCc1cccc(F)c1` it is 4.42. Consider `COC(=O)CC1=C(C(=O)OC)[C@]2(C(=O)Nc3ccccc32)C(C(=O)OCc2ccccc2)=C(N)O1`, for which the logD came to 4.25. Turning to `CCc1cc2c3c(c1)[C@]1(C(=O)N3C(C)(C)C=C2C)C(C#N)=C(N)OC2=C1C(=O)CC(C)(C)C2`, the logD turned out to be 5.39. The molecule `CCOc1cc(/C=N/n2cnc3sc(C)c(C)c3c2=O)cc(Br)c1OCC(N)=O` showed a logD of 4.98.

`Cc1ccc(NCc2ccc3n2C/C(=C2/CCn4c(CNc5ccc(C)cc5)ccc42)C3=O)cc1` had a logD of 6.51.

Turning to `COc1cccc(C2=NN=C3OC(N)=C(C#N)[C@H](c4cc(OC)c(OC)cc4Br)[C@@H]32)c1`, the logD amounted to 4.52. On the same count and under the same terms, the figure for `O=[N+]([O-])c1ccc(-c2nc3nc4ccccc4nc3n2C[C@@H]2CCCO2)cc1` is 3.75. With `OC[C@@H](O)Cn1c(SCCSc2nc3ccccc3n2C[C@H](O)CO)nc2ccccc21`, the logD amounted to 3.29. Turning to `CC(C)=CCCC1=NN(C=O)[C@@](C)(CCC=C(C)C)C1`, the logD was 5.02.
